# Test results from article PMC4279406, “Simultaneous targeting of PI3Kδ and a PI3Kδ-dependent MEK1/2-Erk1/2 pathway for therapy in pediatric B-cell acute lymphoblastic leukemia” (Oncotarget, 2014).
# Legend:
# [1] = test system: PI3Kα (IGF-1-stimulated MEF cells); test: IGF-1-induced Akt phosphorylation in MEF cells; format: cell-based, murine; conditions: up to 0.5 μM; IGF-1 100 ng/ml; 1 h pre-incubation
# Description: In fibroblasts, signals from the insulin-like growth factor 1 (IGF-1) receptor are mediated by PI3Kα, while lysophosphatidic acid (LPA) stimulates G-protein coupled receptor (GPCR) signals via PI3Kβ[26]. After being pre-incubated with X-370, murine embryonic fibroblasts cultured in serum-free medium were stimulated with IGF-1 or LPA. […] Either PI3Kδ or PI3Kγ can be activated in THP-1 monocytes dependent on the stimulating ligand, among which macrophage colony stimulating factor (M-CSF/CSF-1) activates RTK-coupled PI3Kδ, while monocyte chemoattractant protein-1 (MCP-1) activates PI3Kγ [24]. Accordingly, THP-1 cells cultured in serum-free medium were stimulated with MCP-1 or M-CSF in the presence of X-370 and phosphorylated Akt was measured.
# Cell lysates were probed with indicated antibodies. The IC50 values were calculated based on relative band intensity measured with ImageQuant™ TL (GE Healthcare Life Sciences, Piscataway, NJ) (B). Data shown are mean values from three independent experiments. (C, D, E, F) X-370 blocked stimuli-triggered PI3Kδ activation. MEF cells and THP-1 were starved in serum-free medium for 12 h or 4 h respectively and X-370 were added for an additional 1 h treatment following stimulation of IGF-1 at 100 ng/ml for MEF cells (C), LPA at 10 μM for MEF cells (D), MCP-1 at 100ng/ml for THP-1 (E) and M-CSF at 50 ng/ml for THP-1 (F). […]
# [2] = test system: Raji MEK DD cells; test: Erk1/2 phosphorylation in Raji cells expressing MEK DD (Western blot); format: cell-based, human; conditions: 1 h
# Description: Figure 5 Inhibition of Erk1/2 phosphorylation by X-370 contributed to its antiproliferative activity (A-C) X-370 inhibited Erk1/2 phosphorylation via PI3K-PDK1-MEK1/2 cascade but not the PI3K-Gab1 positive feedback loop. (A) Raji and SU-DHL-6 cells were exposed to 1 μM X370 for 3 h and protein fraction from cellular membrane was separated using Native Membrane Protein Extraction Kit and probed. WCL: whole cell lysate. (B) Inhibition of PDK1 or MEK1/2 abrogated Erk1/2 phosphorylation. Cells were treated with pharmacological inhibitors of Raf (AZ 628, PLX4032), MEK1/2 (AZD6244), p90RSK (BI-D1870), PI3Kδ (X-370), PDK1 (BX-912), Akt (MK-2206), mTOR (AZD8055) or mTORC1 (Rapamycin) respectively and indicated proteins were detected. (C) X-370 disrupted the association between PDK1 and MEK1/2. Raji cells were treated with 1 μM X370 for 1 h and cell lysates were immunoprecipitated with anti-PDK1 antibody and indicated proteins were detected. WCL: whole cell lysate. […] (E) Raji and Raji MEK DD cells were treated with X-370 for 72 h and cell proliferation was detected by CCK-8 assay. (F) Raji MEK DD cells were treated with X-370 and AZD6244 and cell proliferation was detected by CCK-8 assay. Data were show as mean ± SD of three independent experiments. *: p < 0.05 determined by t-tests at each data point. […]
smiles,measurement,setting,value
O=C(N1CCCC1)N1CCC(n2cnc3c(-n4c(C(F)F)nc5ccccc54)nc(N4CCOCC4)nc32)CC1 [X-370],IGF-1-induced Akt phosphorylation,[1],partially inhibited
same,Erk1/2 phosphorylation,[2],failed to inhibit
